Measured values published in US5395624A, “Depigmenting cosmetic and/or dermatological composition containing a di- or tri-caffeoylquinic acid, or a mixture thereof” (L'Oreal, priority 1992, dated 1995).

Key:
fungal tyrosinase = test: in vitro test of inhibition of tyrosinase activity; type: biochemical; settings: L-tyrosine with L-dopa co-substrate, pH 6.5, 25° C., dopachrome at 475 nm, read-out: IC 50 (content leading to 50% inhibition of the tyrosinase)
Source text: The di- and tri-caffeoylquinic acids corresponding to general formula (I) have been studied comparatively with caffeic acid in equivalent molar quantities in the in vitro inhibition test of tyrosinase activity.
In this test, visible spectrometry at 475 mn is used to monitor the quantity of dopachrome formed during the chain of reactions by which tyrosine is transformed into melanins. These reactions are catalyzed in vitro using fungal tyrosinase in the presence of a reducing co-substrate (e.g., a small quantity of L-dopa) in order to initiate the hydroxylation reaction of L-tyrosine into L-dopa, which is then catalytically oxidized into dopaquinone, and then into dopachrome which is, an intermediate product, prior to the non-enzymatic oxidation reactions leading to melanin formation.
Accordingly, the concentration of dopachrome formed over time is measured in the presence and absence of the inhibitor.
The inhibition effect is expressed by the lowering of the maximum quantity of dopachrome formed (value of the optical density at 475 nm read on the flat part of the curve) in relation to the quantity obtained in the absence of the inhibitor.
For each compound, the content in micromoles per liter leading to 50% inhibition of the tyrosinase (IC 50) is measured.
A--Phosphate buffer 0.1M pH=6.5 (composition for 200 ml of buffer: 68.5 ml of NaH2 PO4 0.2M+31.5 ml of Na2 HPO4 0.2M+100 ml of water)
B--Mother solution of L-tyrosine at 2×10^-3 M in A
C--Mother solution of L-dopa at 10^-4 M in A
D--Mother solution of fungal tyrosinase at 2,400 units/ml in A
E--Mother solution of the inhibitor at 10^-2 M in ethanol (solutions C and D must be prepared the same day).
homogenize and establish equilibrium at 25° C.
add 0.05 ml of D to the test trough
mix rapidly and observe the kinetics by measuring absorption at 475 nm as a function of time.

[1] = background statement; cited from earlier work
melanocytes = settings: background statement; cited from earlier work

IC50 (fungal tyrosinase) [µM]	SMILES	irritation [1]	cytotoxicity for melanocytes (melanocytes)
47	O=C(C=Cc1ccc(O)c(O)c1)OC1CC(OC(=O)C=Cc2ccc(O)c(O)c2)(C(=O)O)CC(O)C1O (centres unmarked) [1,3-di-caffeoylquinic acid]	–	–
29	O=C(C=Cc1ccc(O)c(O)c1)OC1CC(O)(C(=O)O)CC(OC(=O)C=Cc2ccc(O)c(O)c2)C1OC(=O)C=Cc1ccc(O)c(O)c1 (centres unmarked) [3,4,5-tri-caffeoylquinic acid]	–	–
85	O=C(C=Cc1ccc(O)c(O)c1)OC1CC(O)(C(=O)O)CC(O)C1OC(=O)C=Cc1ccc(O)c(O)c1 (centres unmarked) [3,4-di-caffeoylquinic acid]	–	–
52	O=C(C=Cc1ccc(O)c(O)c1)OC1CC(O)(C(=O)O)CC(OC(=O)C=Cc2ccc(O)c(O)c2)C1O (centres unmarked) [3,5-di-caffeoylquinic acid]	–	–
45	O=C(C=Cc1ccc(O)c(O)c1)OC1CC(O)(C(=O)O)CC(O)C1OC(=O)C=Cc1ccc(O)c(O)c1 (centres unmarked) [4,5-di-caffeoylquinic acid]	–	–
530	O=C(O)/C=C/c1ccc(O)c(O)c1 [Caffeic acid, reference compound]	–	–
–	Oc1ccc(O)cc1 [hydroquinone]	especially irritating	cytotoxic for melanocytes
